In ChEMBL document CHEMBL4330083, “Synthesis and evaluation of isoprenylation-resveratrol dimer derivatives against Alzheimer's disease” (Eur J Med Chem, 2019):
The source made the active and inactive calls. The rule behind the calls is not given here.

Columns and labels:
PC-12 [1] = assay: Neuroprotection against H2O2-induced oxidative damage in rat PC12 cells assessed as reduction in ROS production by measuring mean fluorescence intensity at 5 uM preincubated for 4 hrs followed by H2O2 addition measured after 24 hrs by DCFH-DA staining-based flow cytometric analysis (reference value: 82616); assay type: functional
[2] = Antioxidant activity assessed as inhibition of DPPH free radical after 30 mins by UV-Visible spectrophotometric analysis; assay type: functional
Homo sapiens [3] = species: Homo sapiens; assay: Selectivity ratio of IC50 for human MAO-A to IC50 for human MAO-B
[4] = Neuroprotection against LPS-induced inflammation in […] cells assessed as reduction in ROS production by measuring mean fluorescence intensity at 5 uM after 18 hrs by DCFH-DA staining-based flow cytometric analysis (reference value: 70385); assay type: functional
PC-12 [5] = assay: Neuroprotection against H2O2-induced oxidative damage in rat PC12 cells assessed as reduction in ROS production preincubated for 4 hrs followed by H2O2 addition and measured after 24 hrs by DCFH-DA staining-based flow cytometric analysis; assay type: functional, cell-based
Homo sapiens [6] = species: Homo sapiens; assay: Neuroprotection against LPS-induced inflammation in […] cells assessed as reduction in ROS production after 18 hrs by DCFH-DA staining-based flow cytometric analysis; assay type: functional, cell-based
PC-12 [7] = assay: Neuroprotection against H2O2-induced cell death in rat PC12 cells at 6.25 to 25 uM preincubated for 4 hrs followed by H2O2 addition measured after 24 hrs by MTT assay; assay type: functional, cell-based
Homo sapiens [8] = species: Homo sapiens; assay: Antiinflammatory activity in […] cells assessed as inhibition of LPS-induced TNF-alpha release preincubated for 1 hr followed by LPS addition measured after 18 hrs by ELISA; assay type: functional, cell-based
PC-12 [9] = assay: Neuroprotection against H2O2-induced oxidative damage in rat PC12 cells assessed as viable cells at 2.5 uM after 24 hrs in presence of H2O2 by annexin V-FITC/propidium iodide staining based flow cytometric analysis (reference value: 63.6%); assay type: functional; details: PC-12, 24 h, read-out: Activity
PC-12 [10] = assay: Neurotoxicity in rat PC12 cells at 30 uM after 24 hrs by MTT assay; assay type: toxicity, cell-based; details: pc-12, 24 h
[11] = molecular target: T1, Amine oxidase [flavin-containing] B (Homo sapiens, UniProt P27338)
T1 sequence (P27338 whole entry): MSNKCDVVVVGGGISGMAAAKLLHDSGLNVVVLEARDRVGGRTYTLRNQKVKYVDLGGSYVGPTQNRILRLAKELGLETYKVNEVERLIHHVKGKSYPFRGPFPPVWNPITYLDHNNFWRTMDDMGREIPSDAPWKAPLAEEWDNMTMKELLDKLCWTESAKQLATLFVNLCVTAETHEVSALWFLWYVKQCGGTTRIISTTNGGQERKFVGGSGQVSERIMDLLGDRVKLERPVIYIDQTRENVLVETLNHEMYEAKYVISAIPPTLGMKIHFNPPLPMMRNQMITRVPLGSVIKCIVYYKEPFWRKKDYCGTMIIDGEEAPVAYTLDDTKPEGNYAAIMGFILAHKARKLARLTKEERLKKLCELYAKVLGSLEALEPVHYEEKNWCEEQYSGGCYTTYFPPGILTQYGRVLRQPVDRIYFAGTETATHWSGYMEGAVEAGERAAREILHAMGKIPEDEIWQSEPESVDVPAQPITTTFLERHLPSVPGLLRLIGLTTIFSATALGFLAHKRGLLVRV

Homo sapiens [12] = species: Homo sapiens; assay: Neuroprotection against LPS-induced inflammation in […] cells assessed as reduction in nitric oxide production at 10 to 25 uM after 18 hrs by Griess reagent based assay; assay type: functional, cell-based
PC-12 [13] = assay: Neuroprotection against H2O2-induced oxidative damage in rat PC12 cells assessed as necrotic cells at 5 uM after 24 hrs in presence of H2O2 by annexin V-FITC/propidium iodide staining based flow cytometric analysis (reference value: 4.5%); assay type: functional
in vitro = assay: in vitro; parameters: dose or concentration left out as unconfirmed; details: PAMPA
Description: Effective permeability of the compound at 100 mg/ml incubated for 16 hrs by PAMPA-BBB assay

[14] = Antioxidant activity assessed as ferric ion reduction by measuring trolox equivalents after 3 to 5 mins by FRAP assay; assay type: functional
PC-12 [15] = assay: Neuroprotection against rotenone-induced cell death in rat PC12 cells preincubated for 4 hrs followed by rotenone addition measured after 24 hrs by MTT assay; assay type: functional, cell-based
[16] = Antioxidant activity assessed as ABTS radical cation scavenging activity by measuring trolox equivalents after 150 mins; assay type: functional
[17] = Neuroprotection against LPS-induced inflammation in […] cells assessed as reduction in ROS production by measuring mean fluorescence intensity at 10 uM after 18 hrs by DCFH-DA staining-based flow cytometric analysis (reference value: 70385); assay type: functional
[18] = molecular target: T2, Amine oxidase [flavin-containing] A (Homo sapiens, UniProt P21397); assay: Inhibition of human MAO-A preincubated for 15 mins followed by p-tyramine substrate addition and measured after 20 mins by Amplex red reagent based fluorescence assay
T2 sequence (P21397 whole entry): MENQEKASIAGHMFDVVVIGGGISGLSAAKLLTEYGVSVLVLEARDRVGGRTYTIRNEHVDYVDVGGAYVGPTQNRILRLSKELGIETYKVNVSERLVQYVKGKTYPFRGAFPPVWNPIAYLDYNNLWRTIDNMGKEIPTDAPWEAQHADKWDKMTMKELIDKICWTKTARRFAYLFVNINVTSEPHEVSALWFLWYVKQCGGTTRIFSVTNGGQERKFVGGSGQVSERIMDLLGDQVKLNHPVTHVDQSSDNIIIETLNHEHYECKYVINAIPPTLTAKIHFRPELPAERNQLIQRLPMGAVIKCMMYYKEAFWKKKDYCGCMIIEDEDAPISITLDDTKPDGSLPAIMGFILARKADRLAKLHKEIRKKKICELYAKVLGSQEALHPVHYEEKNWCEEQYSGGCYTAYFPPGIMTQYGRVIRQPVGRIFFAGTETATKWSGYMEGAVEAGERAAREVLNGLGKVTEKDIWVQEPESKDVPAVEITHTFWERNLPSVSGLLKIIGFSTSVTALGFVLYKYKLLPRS

PC-12 [19] = assay: Neuroprotection against oligomycin A-induced cell death in rat PC12 cells preincubated for 4 hrs followed by oligomycin A addition measured after 24 hrs by MTT assay; assay type: functional, cell-based
[20] = Neuroprotection against H2O2-induced inflammation in […] cells assessed as reduction in ROS production by measuring mean fluorescence intensity at 5 uM after 18 hrs by DCFH-DA staining-based flow cytometric analysis (reference value: 11273); assay type: functional
PC-12 [21] = assay: Neuroprotection against H2O2-induced oxidative damage in rat PC12 cells assessed as late apoptotic cells at 10 uM after 24 hrs in presence of H2O2 by annexin V-FITC/propidium iodide staining based flow cytometric analysis (reference value: 29.8%); assay type: functional
PC-12 [22] = assay: Neuroprotection against H2O2-induced oxidative damage in rat PC12 cells assessed as necrotic cells at 10 uM after 24 hrs in presence of H2O2 by annexin V-FITC/propidium iodide staining based flow cytometric analysis (reference value: 0.4%); assay type: functional
[23] = Neuroprotection against LPS-induced inflammation in human BV2 cells assessed as reduction in ROS production by measuring mean fluorescence intensity at 10 uM after 18 hrs by DCFH-DA staining-based flow cytometric analysis (reference value: 56792); assay type: functional

## CC(C)=CCc1c(O)cc(/C=C/c2ccc3c(c2)[C@H](c2cc(O)c4c(c2)OC(C)(C)CC4)[C@@H](c2ccc(O)cc2)O3)cc1O
PC-12 [1]
  Flu intensity: 58560
[2]
  IC50: 35.3 µM
Homo sapiens [3]
  Ratio IC50: 2.07
[4]
  Flu intensity: 51980
PC-12 [5]
  Activity: Dose-dependent effect
Homo sapiens [6]
  Activity: Dose-dependent effect
PC-12 [7]
  Activity: Active
Homo sapiens [8]
  inhibition: Dose-dependent effect
PC-12 [9]
  viability at 2.5 µM: 68%
PC-12 [10]
  Activity: Non-Toxic
[11]
  IC50: 3.93 µM
Homo sapiens [12]
  Activity: Active
PC-12 [13]
  Activity: 1.8%
In vitro
  Papp at 16 h: 6.92 ×10⁻⁶ cm/s
[14]
  Activity: 1.97 equiv
PC-12 [15]
  Activity: Dose-dependent effect
[16]
  Activity: 1.7 equiv
[17]
  Flu intensity: 43811
[18]
  IC50: 8.12 µM
PC-12 [19]
  Activity: Dose-dependent effect
[20]
  Flu intensity: 9218
PC-12 [21]
  Activity: 4.8%

## CC(C)=CCc1c(O)cc(/C=C/c2ccc3c(c2)[C@H](c2cc(O)c(CC=C(C)C)c(O)c2)[C@@H](c2ccc(O)cc2)O3)cc1O
[2]
  IC50: 47 µM
PC-12 [22]
  Activity: 0.7%
[23]
  Flu intensity: 24076
Homo sapiens [3]
  Ratio IC50: 2.83
PC-12 [5]
  Activity: Dose-dependent effect
Homo sapiens [6]
  Activity: Dose-dependent effect
PC-12 [7]
  Activity: Active
Homo sapiens [8]
  inhibition: Dose-dependent effect
PC-12 [10]
  Activity: Non-Toxic
[11]
  IC50: 0.92 µM
Homo sapiens [12]
  Activity: Active
In vitro
  Papp at 16 h: 10.1 ×10⁻⁶ cm/s
[14]
  Activity: 1.74 equiv
PC-12 [15]
  Activity: Dose-dependent effect
[16]
  Activity: 1.43 equiv
[18]
  IC50: 2.6 µM
PC-12 [19]
  Activity: Dose-dependent effect
